Data taken from patent publication US9603922B2, “Modulation of NKT cell activity with antigen-loaded CD1d molecules” (VACCINEX, INC., priority 2007, dated 2017).

Legend:
[1] = test system: liver and spleen iNKT cells; assay: Intracellular cytokine staining of liver and spleen NKT cells after repeated i.v. injections; design: species or system mouse; details: after 5 to 6 i.v. injections every three days; ex vivo and in vitro rechallenge
Description: FIG. 2: a Sustained IFNγ production by liver and spleen iNKT cells after several injections of CD1d/anti-HER2 fusion. Liver and spleen lymphocytes were isolated 20 minutes after the sixth injection of either PBS (control, white bar), αGalCer 0.4 μg (grey bar), or αGalCer/CD1d-anti-HER2 fusion protein 40 μg (black bar) and cultured for 1 hour in presence of GOLGI PLUG™ reagent. NKT cells were then stained with anti NK1.1-PE and anti CD3-FITC antibodies, fixed and stained for intracellular IFNγ with anti IFNγ-APC. […] Liver lymphocytes were isolated after 5 injections i.v. of either PBS (Control), αGalCer, αGalCer/CD1d-anti-HER2 fusion protein (Fusion) or αGalCer/sCD1d (sCD1d) and stimulated in vitro for 6 hours in presence of GOLGI PLUG™ as indicated. […]
Isolation of liver, lung and spleen lymphocytes. […] After two washings, cells were either re-challenged or directly analyzed by fluorescence cytometry. […]
Sustained production of IFNγ after repeated i.v. injections: cytokine production was tested by IntraCellular Cytokine Staining (ICCS). […] After fixation and permeabilization with CYTOFIX/CYTOPERM™ (BD), intracellular IFNγ was detected with an APC-labeled anti-IFNγ monoclonal antibody. Cells were analyzed by flow cytometry on a FACS Calibur ([…]™ Software; BD). […]

B16-HER2 cells = assay: Precoating experiment, lung metastases of B16-HER2 cells; format: in vivo, mouse; details: cells pre-incubated with agent, injected i.v. into naïve mice
Description: Quantification of lung metastasis. Metastatic nodule surface area was measured on 2560×1920 pixels photographs of the whole organs, taken on an Zeiss STEMI SV11 dissection microscope (Carl Zeiss, Jena, Germany) equipped with a PROGRES-C10plus Color Camera (Jenoptik, Jena, Germany). Each image was analyzed with the ImageJ program (rsb.info.nih.gov/ij/) using a k-means clustering algorithm (plugin available on ij-plugins.sourceforge.net). Images were segmented into 9 segments cluster tolerance 1×10−4, randomization seed: 48) and the appropriate segments were selected based on the color of the metastasis reaching the surface of the organ. The area of the sum of selected color segments was expressed as percentage of the area occupied by the lungs. Both sides of the lung were analyzed. This method takes into account both the number and the size of the tumor nodules.

iNKT cells in PBMC = assay: iNKT frequency in peripheral blood during systemic treatment; format: in vivo, mouse; details: PBMC 3 days after third i.v. injection
Description: FIG. 3: iNKT expansion in blood during systemic treatment with αGalCer loaded recombinant CD1d molecules. Mice were bled after the third injection of either PBS (control) αGalCer (0.4 μg), αGalCer/CD1d-anti-Her2 fusion protein (Fusion, 40 μg), or αGalCer/sCD1d (sCD1d, 20 μg). NKT cells were stained in PBMCs using the CD1d-Tetramer-PE and anti CD3 FITC antibody. a representative dot blot of one mouse from each group. b graph representing several mice per group expressed as CD1d tetramer positive and CD3+ cells as percentage of total PBMC.
Increased frequency of iNKT cells during systemic treatment: normally iNKT cells are not detectable in mouse peripheral blood as shown on FIG. 3. In contrast, they became clearly detectable upon systemic treatment with recombinant αGalCer/CD1d molecules, whereas there was no change with αGalCer alone. FIG. 3a gives representative dot plots of FACS staining with CD1d-tetramer+anti-CD3 on PBMC 3 days after the third injection with either PBS, free αGalCer, αGalCer/CD1d-anti HER2, or αGalCer/sCD1d (five mice per group, i.v., injection every 3 days).

[2] = test system: splenocytes, CD11c+ CD40+ DC; assay: Mature DC (CD11c+ CD40+) in splenocyte cultures of OVA-immunized mice; format: cell-based, mouse; details: same cultures, following restimulation
Description: FIG. 8: αGalCer loaded sCD1d acts as a strong adjuvant for the expansion of antigen-specific T cells upon active immunization. a kinetics of expansion of H-2K^b/OVA specific CTLs. Mice were primed with 200 μg ovalbumin either as such (i.v.) or with MONTANIDE™ adjuvant (3:7 ratio, s.c.) or with 1 μg αGalCer or 20 μg αGalCer/sCD1d (i.v.). Mice were bled every 5-7 days and PBMC were stained with H-2K^b/oVA tetramer+anti-CD8. Results were expressed as tetramer+ and CD8+ […] as a percentage of total CD8+ T cells. Mice were boosted with OVA peptide (20 μg) on day 22 employing the same adjuvants and route of injection as for primary immunization. b Ten days later, mice were sacrificed and splenocytes were cultured another five days either with no stimuli or with the same stimuli and adjuvants as for the in vivo boost. Frequency of OVA specific T cells was measured as in a. c The presence of mature DC in the same cultures as in b was analyzed by surface staining with anti CD11c and anti CD40 antibodies.
Together with active OVA immunization: An adjuvant effect has previously been attributed to free αGalCer and its potential use in vaccination has been proposed (Silk, J. D., et al. J Clin Invest 114:1800-1811 (2004)). […]

Molecule	IFNγ production by iNKT cells [1]	Lung metastases of precoated B16-HER2 cells (B16-HER2 cells)	Frequency of iNKT cells in peripheral blood (iNKT cells in PBMC)	Frequency of mature DC (CD11c+CD40+) [2]
CCCCCCCCCCCCCCCCCCCCCCCCCC(=O)N[C@@H](CO[C@H]1O[C@H](CO)[C@H](O)[C@H](O)[C@H]1O)[C@H](O)[C@H](O)CCCCCCCCCCCCCC [αGalCer, α-galactosylceramide, reference compound]	only active in naïve (PBS control) mice and has no more effect in αGalCer-treated mice	completely inhibited tumor development	no change	–
αGalCer/sCD1d: soluble monomeric mouse β2m-CD1d, His-tagged, loaded with αGalCer (protein) IQKTPQIQVYSRHPPENGKPNILNCYVTQFHPPHIEIQMLKNGKKIPKVEMSDMSFSKDWSFYILAHTEFTPTETDTYACRVKHASMAEPKTVYWDRDMGGGGSGGSGSGGGSEAQQKNYTFRCLQMSSFANRSWSRTDSVVWLGDLQTHRWSNDSATISFTKPWSQGKLSNQQWEKLQHMFQVYRVSFTRDIQELVKMMSPKEDYPIEIQLSAGCEMYPGNASESFLHVAFQGKYVVRFWGTSWQTVPGAPSWLDLPIKVLNADQGTSATVQMLLNDTCPLFVRGLLEAGKSDLEKQEKPVAWLSSVPSSADGHRQLVCHVSGFYPKPVWVMWMRGDQEQQGTHRGDFLPNADETWYLQATLDVEAGEEAGLACRVKHSSLGGQDIILYWSSGSGGHHHHHH	stimulate iNKT to produce IFNγ following repeated in vivo stimulation with the same material	–	–	increased frequency of mature DC
